From patent US9901621B2, “Composition for treating hyperlipidemia comprising oxyntomodulin derivative” (HANMI PHARM. CO., LTD., priority 2012, dated 2018)
Where a SMILES comes first, the peptide text is derived from it. [ ]: non-standard residue; d: D form. Aib = CC(C)(N)C(=O)O

Columns and labels:
[1] = molecular target: T1, human glucagon receptor (Homo sapiens, UniProt P47871); assay: cAMP response in CHO cells expressing glucagon receptor (CHO/GCGR); assay type: cell-based
T1 construct: Using a portion corresponding to the ORF (open reading frame) of cDNA; expressed in transfected cells; host or cells: CHO DG44
Procedure: The PCR product was cloned into the known animal cell expression vector x0GC/dhfr, thereby constructing the recombinant vector x0GC/GCGR.
(§1) The recombinant vector x0GC/GCGR was introduced into a CHO DG44 cell line, cultured in DMEM/F12 (10% FBS) medium, using lipofectamine (Invitrogene, USA), to obtain a transformant. The transformant was incubated in a selective medium containing 1 mg/mL G418 and 10 nM methotraxate, and monoclonal cell lines were selected therefrom.
(§2) The cultured cells were washed with KRB buffer, suspended in 40 ml of 1 mM IBMX-containing KRB buffer, and then allowed to stand at room temperature for 5 minutes. […] Then, 20 ml of cell lysis buffer was added to lyse the cells, and the concentration of cAMP in each of the cell lysates was measured using a cAMP assay kit (Molecular Device, USA).

[2] = molecular target: T2, human GLP-1 receptor (Homo sapiens, UniProt P43220); assay: cAMP response in CHO cells expressing GLP-1 receptor (CHO/GLP-1R); assay type: cell-based
T2 construct: Using a portion corresponding to the ORF (open reading frame) of cDNA; expressed in transfected cells; host or cells: CHO DG44
Procedure: The PCR product was cloned into the known animal cell expression vector x0GC/dhfr, thereby constructing the recombinant vector x0GC/GLP-1R.
as §1, with “x0GC/GLP-1R” for “x0GC/GCGR”
as §2

[3] = test system: high-fat diet-induced hyperlipidemia hamsters; assay: Reduction in lipid levels in hyperlipidemia model hamsters (Example 5); assay type: in vivo, Golden Syrian hamsters; conditions: vs high-fat diet group, s.c. once a week for 2 weeks, 3.25 nmol/kg SEQ ID NO: 25-Fc or 8.96 nmol/kg SEQ ID NO: 23-Fc
Excerpt: 8 week-old male hamsters (Golden Syrian hamsters, 120-130 g) were purchased from Vital River China. It is known that hamsters show blood lipid profiles similar to humans, unlike other rodents, and are sensitive to high-fat diets.
The animals were allowed access to a sterilized high-fat diet (Purina 5001 containing 11.5% maize oil, 11.5% coconut oil, 0.5% cholesterol, and 0.25% deoxycholate; Dyets, Bethlehem, Pa.) or a standard rodent diet (low fat, 2018; Harlan Teklad, Madison, Wis.). A normal diet group was allowed access to filtered and UV-sterilized tap water, and a high-fat diet group was allowed access to water containing 10% fructose. The animals were kept in a breeding chamber satisfying GLP standards under a 12-hr light/12-hr dark cycle (lighting: am 6 to pm 6), and all the experimental procedures were performed according to the standard guideline for animal experiments. Drug administration was started after 3 weeks of hyperlipidemia induction, and the animals were divided into four groups (n=6) as shown in Table 3 below.
(§3) Group 3 (hyperlipidemia-induced group+group administered with 3.25 nmol/kg of SEQ ID NO: 25-Fc conjugate) was fed with a high-fat diet to induce hyperlipidemia, and then administered with 3.25 nmol/kg of the SEQ ID NO: 25-Fc conjugate (prepared in Example 4) once a week at an injection dose of 5 ml/kg.
as §3, with “4” for “3”, “8.96” for “3.25”, “23-Fc” for “25-Fc”, “3)” for “4)”
Saline or the drug was administered into each group (n=6) for 2 weeks, and then the effects thereof on a reduction in lipid levels were analyzed.
Blood was collected from the hamsters which were administered or not administered with the long-acting oxyntomodulin derivative as described in Example 5-1, and the lipid levels of the blood were analyzed using HITACHI 7020.
FIGS. 1 to 5 show the change in blood triglyceride levels (FIG. 1), the change in blood total cholesterol levels (FIG. 2), the change in LDL-cholesterol levels (FIG. 3), blood HDL-cholesterol levels (FIG. 4), and the change in the blood HDL/LDL-cholesterol ratio (FIG. 5). The obtained results were statistically processed, and the mean values and the standard deviations of the mean values were calculated. In the verification of significance between the groups (n=6), data were statistically processed using Dunnett's test of one-way ANOVA, and a value of p<0.05 was considered statistically significant.

[4] = test system: high-fat diet-induced hyperlipidemia hamsters; assay: Blood lipid levels in high-fat diet hamsters, comparison with VICTOZA (Example 6); assay type: in vivo, Golden Syrian hamsters; conditions: vs 35.5 nmol/kg VICTOZA s.c., 3.25 nmol/kg SEQ ID NO: 25-Fc or 8.96 nmol/kg SEQ ID NO: 23-Fc s.c.
Procedure: The effect of reducing lipid levels was compared between the oxyntomodulin derivative conjugate and known VICTOZA®.
As described in Example 5, hamsters were divided into a normal hamster group and hamster groups fed with a high-fat diet. The normal hamster group was administered subcutaneously with 5 ml/kg of DPBS once or more a week. The hamster groups fed with high-fat diet were divided into a group administered subcutaneously with 5 ml/kg of DPBS once or more a week, a group administered subcutaneously with 35.5 nmol/kg of VICTOZA® once or more a week, a group administered subcutaneously with 3.25 nmol/kg of the SEQ ID NO: 25-Fc conjugate, and a group administered subcutaneously with 8.96 nmol/kg of the SEQ ID NO:23-Fc conjugate, and the blood lipid levels of the groups were analyzed.

T2 sequence (P43220 24-463): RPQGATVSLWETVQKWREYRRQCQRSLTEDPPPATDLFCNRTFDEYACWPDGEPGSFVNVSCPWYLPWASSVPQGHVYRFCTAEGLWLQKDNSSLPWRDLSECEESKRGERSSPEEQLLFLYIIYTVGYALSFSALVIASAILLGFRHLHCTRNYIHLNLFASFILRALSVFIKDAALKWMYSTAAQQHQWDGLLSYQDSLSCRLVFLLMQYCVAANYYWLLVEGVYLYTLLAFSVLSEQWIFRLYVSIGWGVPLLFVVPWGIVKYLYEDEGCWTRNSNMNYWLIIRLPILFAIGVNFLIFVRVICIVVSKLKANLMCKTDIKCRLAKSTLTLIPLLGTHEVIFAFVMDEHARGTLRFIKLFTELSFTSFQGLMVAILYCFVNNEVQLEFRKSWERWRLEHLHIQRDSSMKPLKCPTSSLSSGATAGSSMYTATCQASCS
T1 sequence (P47871 26-477): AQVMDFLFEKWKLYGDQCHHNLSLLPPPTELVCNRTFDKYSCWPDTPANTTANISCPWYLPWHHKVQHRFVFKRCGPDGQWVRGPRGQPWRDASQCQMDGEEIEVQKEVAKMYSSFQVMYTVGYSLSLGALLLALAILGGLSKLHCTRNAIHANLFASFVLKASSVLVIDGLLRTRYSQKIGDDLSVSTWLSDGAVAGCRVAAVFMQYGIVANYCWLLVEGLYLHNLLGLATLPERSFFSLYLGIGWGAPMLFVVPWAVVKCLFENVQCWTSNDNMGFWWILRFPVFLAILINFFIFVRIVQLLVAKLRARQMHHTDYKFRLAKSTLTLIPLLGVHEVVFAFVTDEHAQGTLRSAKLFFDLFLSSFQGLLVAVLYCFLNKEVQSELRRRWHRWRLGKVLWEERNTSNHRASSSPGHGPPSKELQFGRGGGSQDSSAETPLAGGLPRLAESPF

| EC50 [1] [nM] | EC50 [2] [nM] | Compound | blood triglyceride levels ([3]; FIG. 1) | blood total cholesterol levels ([3]; FIG. 2) | blood LDL-cholesterol levels ([3]; FIG. 3) | blood HDL-cholesterol levels ([3]; FIG. 4) | blood HDL/LDL-cholesterol ratio ([3]; FIG. 5) | blood total cholesterol levels compared to VICTOZA ([4]; FIG. 6) | blood LDL-cholesterol level compared to VICTOZA ([4]; FIG. 7) | blood HDL-cholesterol levels compared to VICTOZA ([4]; FIG. 8) | HDL/LDL-cholesterol ratio compared to VICTOZA ([4]; FIG. 9) | blood triglyceride levels compared to VICTOZA ([4]; FIG. 10) |
| --- | --- | --- | --- | --- | --- | --- | --- | --- | --- | --- | --- | --- |
| 5.8 | 2.46 | CSCC[C@H](NC(=O)[C@H](CC(C)C)NC(=O)[C@H](Cc1c[nH]c2ccccc12)NC(=O)[C@H](CS)NC(=O)[C@@H](NC(=O)[C@H](Cc1ccccc1)NC(=O)[C@H](CCC(=O)O)NC(=O)[C@H](CCCCN)NC(=O)[C@H](C)NC(=O)[C@H](CCCNC(=N)N)NC(=O)[C@H](CCCCN)NC(=O)[C@H](CCC(=O)O)NC(=O)[C@H](CC(=O)O)NC(=O)[C@H](CC(C)C)NC(=O)[C@H](Cc1ccc(O)cc1)NC(=O)[C@H](CCCCN)NC(=O)[C@H](CO)NC(=O)[C@H](Cc1ccc(O)cc1)NC(=O)[C@H](CC(=O)O)NC(=O)[C@H](CO)NC(=O)[C@@H](NC(=O)[C@H](Cc1ccccc1)NC(=O)[C@@H](NC(=O)CNC(=O)[C@H](CCC(N)=O)NC(=O)C(C)(C)NC(=O)[C@@H](N)Cc1c[nH]cn1)[C@@H](C)O)[C@@H](C)O)C(C)C)C(=O)N[C@@H](CC(N)=O)C(=O)N[C@H](C(=O)O)[C@@H](C)O [SEQ ID NO: 23] (H-H[Aib]QGTFTSDYSKYLDEKRAKEFVCWLMNT-OH; C-terminus assumed) |  |  |  |  |  |  |  |  |  |  |
|  |  | SEQ ID NO: 25-Fc conjugate: oxyntomodulin derivative of SEQ ID NO: 25 linked at cysteine 30 via MAL-10K-ALD PEG to immunoglobulin Fc (Example 4) (HXQGTFTSDYSKYLDEKRAKEFVQWLMNTC; PEG linker at Cys30 to immunoglobulin Fc; MOD_RES (2)..(2) Aib; (16)..(20) Ring formation between residues) | significantly decreased | significantly decreased | significantly decreased | significant increase | significant increase | decrease | decrease | significant increases | significant increases | decrease |
